Experimental data: EP2829536A1, “4-Nitro-5-dichloromethylpyrazol derivatives for the treatment of infectious diseases” (priority 2013, dated 2015)
“Also recorded” adds a separate entry of the source. Where two headings read alike, the source gives them in different places.

Key:
M. bovis BCG [1] = test: microbe, parasite or virus in culture; assay type: cell-based; details: Mycobacterium tuberculosis variant bovis BCG
PtK2 cells = test: Effect on cell morphology / endoplasmic reticulum by immunocytochemistry (ICC); assay type: cell-based, rat kangaroo; details: for morphological effect / ER stress: PtK2 cells, overnight
Method: Cell lines and media: Cells were grown at 37°C and 5% CO2 in the following media supplemented with 10 % FBS(Gibco): • L-929 cells (mouse connective tissue fibroblast: Dulbecco's modified Eagle's medium (DMEM), Lonza • PtK2 cells (rat kangaroo kidney epithelial cells): Minimum Essential Medium (MEM) medium, supplemented with 1 % non-essential amino acids and 1 % glutamax, Invitrogen.
The effects of the tested compounds on cell proliferation and the acute toxic effects were assayed in vitro on L929 cell line. The metabolic activity was measured by means of (MTT, (3-(4,5-Dimethylthiazol-2-yl)-2,5-diphenyltetrazolium bromide) cell survival colorimetric assay. Effect on proliferation: 60 µl of serial dilutions of the test compounds were added to 120 µl aliquots of a cell suspension (50,000 cells/ml) in 96-well microplates then incubated 5 days at 37°C and 5% CO2. 20 µl MTT dye were added to a final concentration of 0.5 mg/ml. After 2 h the precipitate of formazan crystals was centrifuged, and the supernatant discarded. After washing with PBS, the precipitate was dissolved in 100 µl of acidified propanol. The plates were stirred for 20 minutes and the optical density of the resulting color was measured at 590 nm. Acute toxic effect: It was investigated by plating 120 µl aliquots of a cell suspension (100,000-200,000 cells/ml) in 96-well microplates. The cells were incubated at 37°C and 5% CO2 and allowed to grow for two days to stop the cell propagation. Then 60 µl of serial dilutions of the test compounds were added and incubated for further 24h. Then the MTT assay was performed as described before. Results were expressed as the percentage of cellular viability in comparison to cells that were treated only with the vehicle. The IC50 values were determined as the concentrations at which cells developed 50% of the absorbance of untreated control cells as estimated from the dose-response curves of two parallel experiments. Immunofluorescence staining: The effects of substances on the phenotypical changes of cell shape and adhesion were investigatedin the potoroo (PtK2) cells after staining of the nucleus and the endoplasmic reticulum (ER). PtK2 cells were grown on cover slips in 4-well plates. semi-confluent cells were treated with test compounds and the plates were incubated over the night. The cells were fixed with cold methanol /acetone (1:1) for 10 min. Then the cells were washed with PBS and the primary antibody (anti GRP-94, thermoscientific) was added and incubated for 45 min and washed with PBS. Secondary antibody (Alexaflour goat anti-rat 488, Invitrogen) was then added to the cells and incubated for additional 45 min. Cells were washed with PBS and Cover slips were mounted in anti-fade mounting medium with DAPI (Invitrogen). Images were taken with a CCD camera attached to a fluorescence microscope.
The effects of substances on the phenotypical changes of cell shape and adhesion were investigated by the technique of immunocytochemistry (ICC). The endoplasmic reticulum (ER) was investigated upon treatment of the potoroo cells (PtK2) cells with/without test compounds.
PtK2 cells were grown on cover slips in 4-well plates. semi-confluent cells were treated with test compounds and the plates were incubated over the night. The cells were fixed with cold methanol /acetone for 10 min. Then the cells were washed with PBS and the primary antibody (anti GRP-94, thermoscientific) was added and incubated for 45 min and washed with PBS. […]

M. tuberculosis H37Rv = test: Minimal inhibitory concentration by resazurin microtiter assay (REMA); assay type: cell-based; details: Mycobacterium tuberculosis, 168 h, 7 days incubation, read-out: (MIC) against M. tuberculosis H37Rv
L929 cell line [2] = test: MTT assay, effect on proliferation (5 days); assay type: cell-based; details: Mus musculus, L929, 120 h
L929 cell line [3] = test: MTT assay, acute toxic effect (24 h); assay type: cell-based; details: Mus musculus, L929, 24 h; 1 day (acute toxic effect)
M. bovis BCG [4] = assay type: cell-based
[5] = Hepatic microsomal stability; assay type: in vitro ADME, mice
[6] = system: H37Rv Pasteur M. tuberculosis strain; test: Effectivity in mice infected with M. tuberculosis (bacillary load in lung and spleen); assay type: in vivo; details: for p (Lungs) / p (Spleen): vs sham
Method: Lx079 as well as two other components, Lx059 which is 10% DMSO in PBS buffer and Lx069 which is a combination of ethambutol (0.8 mg/ml) and myxopyronine (0.2 mg/ml), were tested for drug effectivity in mice. Two controls were included in the study (sham, non treated; and treated with Isoniazide (INH, 25 mg/kg).
The animals were infected at time point 0 with M. tuberculosis through an airborne infection apparatus (Glas-col Inc., Terre Haute, IN, USA) for infection with a low dose of H37Rv Pasteur M. tuberculosis strain. Nebulization provided an approximate uptake of 20-50 bacilli by mice lungs. The treatments and controls results were processed blindly. The experiment was run including 10 C57BL/6 mice per group. A volume of 0.2mL of each treatment was administered orally every day for 5 days, on week 2 post infection.
Mice were euthanized on week 3 with isoflurane (inhalation excess), and lung and spleen samples removed to and mechanically disrupted in order to obtain tissue homogenates to be plated cultured in Becton Dickinson 7H11 Middlebrook agar (Bennex Ltd, Shannon, Ireland) and incubated at 37 °C. Viable bacteria (Colony Forming Units, CFUs) were counted four weeks after, data being recorded as the log of the number of CFUs recovered per organ. The results of the different groups were represented graphically, compared and evaluated for statistically significant differences (non parametric comparison between each candidate and each control, Mann Whitney test), with the differences being considered significant at P≤0.05 (Graphpad software).
The effect on the bacillary load of each candidate results have been logarithmically represented as CFU/mL in the graphs attached. The lung and spleen results of each candidate and controls evaluated have been represented together (as box and whiskers, 5-95 percentiles plotted) and also per candidate with sham (results of each mouse and median and standard deviation plotted). Statistically significant differences (p<0.05) are marked with * if existing between the evaluated group and sham.

[7] = mouse, in vivo
[8] = female, C57/BL6, mouse, in vivo; for F (bioavailability): po
Source text: (§1) Mice were weighed and checked according to the protocols and observation data sheets that were requested. Animals were followed for weight loss, apparent good health (bristled hair and wounded skin) and behaviour (signs of aggressiveness or isolation). Animals: Young adult (6-8 weeks old) female C57/BL6 mice, 20 mice for acute oral toxicity testing and 81 mice for PK experiment were used. The animals were nulliparous and non-pregnant weighing 20 ±1.5 g each. They were maintained in their cages provided with a standard laboratory rodent diet and unlimited supply of drinking water and were allowed to acclimatize to the laboratory conditions for seven days before starting the experiments. The temperature in the experimental animal room was kept at 22°C ± 3°C and the relative humidity was 50 ± 20 %. Lighting was artificial with the sequence 12 hours light and 12 hours dark. Substance formulation for in vivo model: Doses were prepared in 5% DMSO in sterile water for oral dosing through oral gavage at a dose volume of 0.3 ml, and in 5% DMSO in PBS, pH 7.4 for IV bolus injection via tail vein at a dose volume 0.1 ml.
(§2) The animals were divided into one IV group (27 mice), 2 oral groups (24 mice each), control IV group (3 mice) and control oral group (3 mice). The IV group and one oral group were dosed with 12.5 mg/kg and the other oral group was dosed with 25 mg/kg, while the control groups received the vehicle. All blood samples were collected at 15 and 30 min and 1, 2, 4, 6, 8, and 24 h after oral dosing, and at 5, 15, and 30 min and 1, 2, 4, 6, 8, and 24 h following intravenous administration. The blood was collected from the control groups at 24 h. Mice were euthanized with isoflurane and a 0.3 mL aliquot of blood was collected via terminal bleed from three mice at each time point. Blood samples were collected in heparin as anticoagulant and plasma was harvested by centrifugation at 10,000 rpm for 2 minutes. Plasma samples were kept at -80 °C until analysis.

in vivo = details: female, C57/BL6, mouse; for bioavailability: F (bioavailability)
Source text: as §1, §2

[9] = Acute oral toxicity in mice; details: for No. of dead mice: 5 mice, 14 days; for % Cumulative of dead mice: Reed-Muench method
[10] = dose group Lx079-1 (dose not given)
[11] = dose group Lx079-2 (dose not given)
[12] = dose group Lx079-3 (dose not given)
[13] = dose group Lx079-4 (dose not given)
[14] = dose group Lx079-5 (dose not given)
[15] = dose group Lx079-6 (dose not given)

With CNCCOc1nn(-c2c(Cl)cc(C(F)(F)F)cc2Cl)c(C(Cl)Cl)c1[N+](=O)[O-].Cl [Lx088, 2-((1-(2,6-Dichloro-4-(trifluoromethyl)phenyl)-5-(dichloromethyl)-4-nitro-1H-pyrazol-3-yl)oxy)-N-methylethanaminium chloride] as the compound, how does the MIC (M. bovis BCG [1]) read?
Its MIC is 0.781 µg/mL.

What about the “morphological effect / ER stress” value (PtK2 cells; 6.6 µg/ml) of the same compound?
The value was “produced less ER stress”.

And the “morphological effect / ER stress” value (PtK2 cells; 13.3 µg/ml)?
Its value is “induced massive ER stress”.

For CCNCCOc1nn(-c2c(Cl)cc(Cl)cc2Cl)c(C(Cl)Cl)c1[N+](=O)[O-].Cl [Lx089, 2-((5-(Dichloromethyl)-4-nitro-1-(2,4,6-trichlorophenyl)-1H-pyrazol-3-yl)oxy)-N-ethylethanaminium chloride], which MIC (M. bovis BCG [1]) is on record?
The MIC was 0.781 µg/mL.

For CNCCOc1nn(-c2c(Cl)cc(Cl)cc2Cl)c(C(Cl)Cl)c1[N+](=O)[O-].Cl [LX079, 2-((5-(Dichloromethyl)-4-nitro-1-(2,4,6-trichlorophenyl)-1H-pyrazol-3-yl)oxy)-N-methylethanaminium chloride], which MIC (M. tuberculosis H37Rv) is on record?
Its MIC is 0.18 µg/mL.

What about the IC50 (L929 cell line [2]) of the same compound?
Its IC50 is 2.2 µg/mL.

What about the IC50 (L929 cell line [3]) of the same compound?
The IC50 was 5.5 µg/mL.

And the “decrease of log CFU” value (M. bovis BCG [4]; 2 µg/ml, 72 hours, in comparison to the untreated controls)?
Its value is “around 2 log CFU”.

What about the “intracellular activity against M. bovis BCG” value (M. bovis BCG [4]; infected macrophage model, Fig. 1) of the same compound?
Its value is “significant intracellular activity”.

And the “t1/2 (in vitro)” value ([5]; 1 µM, mice microsomes 0.5 mg/mL, NADPH, 37 °C)?
Its value is 5.937 ± 2.36 min.

What about the half-life at 1 µM ([5]; mouse, pooled liver microsomes, pH 7.4, 1 µM, mice microsomes 0.5 mg/mL, NADPH, 37 °C, read-out: t1/2 (in vitro)) of the same compound?
The half-life at 1 µM was 5.94 ± 2.36 min.

What about the microsomal CLint at 1 µM ([5]; mouse, pooled mouse liver microsomes, pH 7.4, mice microsomes, corrected for binding to microsomes, read-out: CLint, inc) of the same compound?
Its microsomal CLint at 1 µM is 2820 ± 1120 µL/min/mg.

What about the “CLint (hepatic intrinsic clearance)” value ([5]; scaled up from the in vitro t1/2, SMW: standard mouse weight) of the same compound?
Its value is 221.81± 88.23 ml/min/SMW.

What about the “effect on the bacillary load in lungs and spleen compared to sham” value ([6]; C57BL/6 mice, oral, every day for 5 days on week 2 post infection) of the same compound?
Its value is “decrease the bacillary load in both in lungs and spleen; also recorded: clear positive inhibitory effect on the survival of the TB pathogen”.

What about the “p (Lungs)” value [6, 10] of the same compound?
The value was 0.0032.

And the “p (Spleen)” value [6, 10]?
The value was 0.0009.

What about the “p (Lungs)” value [6, 11] of the same compound?
Its value is 0.0002.

What about the “p (Spleen)” value [6, 11] of the same compound?
The value was 0.0343.

What about the “p (Lungs)” value [6, 12] of the same compound?
The value was 0.0010.

And the “p (Spleen)” value [6, 12]?
The value was 0.0002.

And the “p (Lungs)” value [6, 13]?
Its value is 0.0004.

And the “p (Spleen)” value [6, 13]?
The value was 0.0117.

What about the “p (Lungs)” value [6, 14] of the same compound?
The value was 0.0002.

And the “p (Spleen)” value [6, 14]?
Its value is 0.0164.

What about the “p (Lungs)” value [6, 15] of the same compound?
The value was 0.0002.

What about the “p (Spleen)” value [6, 15] of the same compound?
Its value is 0.0031.

What about the MIC (M. bovis BCG [1]) of the same compound?
Its MIC is 0.6 µg/mL.

What about the “morphological effect / ER stress” value (PtK2 cells; 5µg/ml) of the same compound?
The value was “did not produce morphological abnormalities”.

And the “morphological effect / ER stress” value (PtK2 cells; 6.6 µg/ml)?
The value was “induced massive ER stress”.

And the “morphological changes of the treated cells after immunofluorescence staining” value (PtK2 cells; concentration 25 times higher than the MIC)?
The value was “no morphological changes”.

And the “microscopic examination of liver, spleen, lungs, and kidneys” value [7]?
The value was “No pathological abnormalities were detected”.

And the C0 ([8]; iv, 12.5 mg/kg)?
Its C0 is 660 ± 70 ng/mL.

And the CL ([8]; iv, 12.5 mg/kg)?
The CL was 394 ± 20.3 mL/min/kg.

What about the “K (elimination rate constant)” value ([8]; iv, 12.5 mg/kg) of the same compound?
Its value is 1.79 ± 0.44.

And the t1/2 ([8]; iv, 12.5 mg/kg)?
Its t1/2 is 25.8 min.

What about the “time in which the plasma concentration was exceeding the in vitro MIC (T > MIC)” value ([8]; iv, 12.5 mg/kg) of the same compound?
Its value is “less than 1 hour”.

And the “F (bioavailability)” value ([8]; 12.5 mg/kg)?
Its value is 27.583 ± 2.457%.

What about the “F (bioavailability)” value ([8]; 25 mg/kg) of the same compound?
The value was 32.662 ± 7.715%.

And the AUC (in vivo; iv, 12.5 mg/kg)?
The AUC was 530 ± 30 ng·h/mL.

What about the C0 (in vivo; iv, 12.5 mg/kg) of the same compound?
Its C0 is 660 ± 70 ng/mL.

And the clearance (in vivo; iv, 12.5 mg/kg)?
Its clearance is 394 mL/min/kg.

What about the half-life (in vivo; iv, 12.5 mg/kg) of the same compound?
The half-life was 25.8 ± 16.2 min.

And the AUC (in vivo; po, 12.5 mg/kg)?
Its AUC is 150 ± 20 ng·h/mL.

What about the bioavailability (in vivo; po, 12.5 mg/kg) of the same compound?
Its bioavailability is 27.6 ± 2.46%.

And the AUC (in vivo; po, 25 mg/kg)?
The AUC was 350 ± 70 ng·h/mL.

What about the bioavailability (in vivo; po, 25 mg/kg) of the same compound?
Its bioavailability is 32.7 ± 7.72%.

And the “No. of dead mice” value ([9]; 62.5 mg/kg single oral dose)?
The value was 0.

And the “% Cumulative of dead mice” value ([9]; 62.5 mg/kg single oral dose)?
Its value is 0%.

What about the “No. of dead mice” value ([9]; 125 mg/kg single oral dose) of the same compound?
Its value is 2.

What about the “% Cumulative of dead mice” value ([9]; 125 mg/kg single oral dose) of the same compound?
The value was 22%.

What about the “No. of dead mice” value ([9]; 250 mg/kg single oral dose) of the same compound?
The value was 1.

What about the “% Cumulative of dead mice” value ([9]; 250 mg/kg single oral dose) of the same compound?
The value was 42.85%.

And the LD50 at 14 days ([9]; female, C57/BL6, mouse, in vivo, po)?
Its LD50 at 14 days is > 250 mg/kg.
